Holding throughout (type): cell-based, human
The test system of assay [1] is A53T a-syn-mediated cytotoxicity in HEK293 cells. Nature of the assay: Pooled lentiviral 7-mer peptide cytotoxicity screen, A53T a-syn + MG132.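 For Slope Norm Reads: reads normalized to total peptide reads per sample with scalar factor.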 To be noted: for Reads 0M MG132: Illumina reads, average Phred >30. An excerpt:
(§1) We used a lentiviral library of 50,549 7-mer peptides enriched in PPI motifs[13] on a green fluorescent protein (GFP) scaffold (Fig. 1A). We infected cells in a pooled format and the amino acid sequence of each peptide served as its own barcode. By using a low multiplicity of infection followed by puromycin selection, each infected cell expressed one unique GFP-peptide. We screened for peptides that reduced a-syn-mediated cytotoxicity or a-syn oligomers in parallel (Fig. 1A). To cause cytotoxicity relevant to PD, we induced proteostatic stress in HEK293 cells by inhibiting the proteasome with MG132 and overexpressing human WT a-syn associated with idiopathic PD in one screen or the more toxic mutant A53T a-syn associated with familial PD in a second screen. This combination of a-syn overexpression and pharmacological proteasome inhibition led to death of most cells, with only those that expressed a protective peptide surviving. By extracting genomic DNA from the surviving cells and amplifying the peptide coding sequences, we identified the protective peptides (Fig. 1A). To detect a-syn oligomers, we used a protein fragment complementation assay (PCA) of a-syn oligomerization in HEK293 cells. In this assay, human A53T a-syn was fused to either the C- or N-terminal half of yellow fluorescent protein (YFP). No fluorescence is detectable while a-syn exists in monomers but, when a-syn oligomerizes, the two halves of YFP come in close enough proximity to form a functional, spontaneously fluorescent protein. […] Our screens yielded 10 hits (Table S1). The hit with the most reads (i.e., the most abundant) was the same peptide in all screens: IPIQLKA (named PDpep1) (Table S1). We validated the cytoprotective effects of PDpep1 in HEK293 cells overexpressing WT or A53T a-syn (Figs. 1B, S1A), as well as its ability to reduce WT or A53T a-syn oligomers in a luciferase-based PCA[18]–[20] compared to a scrambled control peptide (Figs. 1C, S1B).
(§2) HEK293T cells (ATCC, CRL-3216) were maintained in DMEM supplemented with 10% FBS and 1% pen/strep/glutamine, and the appropriate selection antibiotics when required. Lentiviruses were made in a 15 cm dish format by transfecting packaging cells (HEK293T) with a three-plasmid system (expression vector, psPAX2 and pMD2.G) and using Polyjet DNA transfection reagent (FroggaBio, SL100688.1). Viral transduction of HEK293T cells were performed with a multiplicity of infection (MOI) of 0.3. Infected cells were selected in puromycin-containing medium to eliminate uninfected cells and three aliquots of cells were collected for sampling of the initial (T0) cell population. Cells were treated with MG132 at concentrations of 0, 10, 25, or 50 µM. For the cell viability screen, surviving cells were collected and gDNA was extracted for identification of peptide inhibitors of cell toxicity. For the inhibition of a-syn aggregation screen, a protein fragment complementation assay (PCA) was used by transfecting cells with split YFP-a-syn constructs following stable expression of the peptides. Cells were sorted based on their YFP fluorescence intensities with a FACSVantage SE cell sorter (BD Bioscience) and gDNA was extracted for identification of peptides.
(§3) Genomic DNA (gDNA) from peptide expressing cells at different time-points was extracted using QIAamp DNA Blood Mini Kit. PCR amplifications of peptides from gDNA in parallel with the lentiviral plasmid library (naïve library) were performed using indexed Illumina PCR primers to incorporate both the Illumina adapter sequences and indexing sequences. Each 50 μl reaction contained 3.2 μg of template, 2× PCR buffer, 2× enhancer solution, 300 μM each dNTP, 900 nM each of Adapter A (5′-[…]-[…]-3′) and Adapter B (5′-[…]-[…]-3′), 1 mM MgSO4, 3.75 units of Platinum Pfx polymerase, and water to 50 μl. […]

A further assay concerns A53T a-syn oligomers. Nature of the assay: Split-YFP PCA/FACS screen of A53T a-syn oligomers.
Excerpt: as §1, §2
Cells were harvested by trypsin treatment and centrifuged at 500 × g for 5 min. The pellet was resuspended in ice-cold PBS and centrifuged again. The pellet was then resuspended at a concentration of 4 × 10^6 cells/ml in the sorting buffer, which is PBS containing 100 Kunitz DNase I/ml, 10 μg/ml propidium iodide (Sigma), and 2% FBS. The cells were then sent through a 40 μm filter to remove large clumps and loaded into either a FACScan Flow Cytometer (BD Bioscience) for cell analysis or a FACSVantage SE cell sorter (BD Bioscience) for cell sorting. The cells with positive propidium iodide staining (i.e., dead cells) were first eliminated from the analysis. […]

Assay [2] concerns WT a-syn-mediated cytotoxicity in HEK293 cells. Nature of the assay: Pooled lentiviral 7-mer peptide cytotoxicity screen, WT a-syn + MG132.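 For Slope Norm Reads: reads normalized to total peptide reads per sample with scalar factor.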 To be noted: for Reads 0M MG132: Illumina reads, average Phred >30.
Excerpt: as §1, §2, §3

Assay [3] relates to A53T a-syn expressing HEK293 cells. Nature of the assay: Cell Titer-Glo cell viability, A53T a-syn expressing cells. As to conditions: A53T a-syn cells. Here is the method: Oligonucleotides encoding the specific peptides were synthesized and individually cloned into the pLJM1 nGFP lentiviral vector. HEK293T cells were infected with individual constructs, and cell viability was assessed using Cell Titer-Glo luminescent assay (Promega) at 72 h post infection.
Cells were trypsinized from subconfluent cultures as described earlier, suspended in culture media, and then seeded into triplicate wells of a 96-well plate (100 µl/well) at a density of 1.5 × 10^4 cells per well with standard culture conditions of 5% CO2 at 37 °C. Cells were infected with lentivirus expressing peptide at a MOI of 5 for 72 h or transfected with plasmid for 72 h. Cell Titer-Glo reagent was added to each well (30 µL), according to the manufacturer’s protocol and […].
On the technique in general: Cellular ATP, detected with luciferase, serves as a proxy for viable cell number.

Take QSVLQQV [library 7-mer, A53T screen]: in assay [1], the “Reads 10M MG132” value was determined as 2, the “Reads 25M MG132” value amounted to 12, the “Reads 50M MG132” value worked out at 282 and the “Slope Norm Reads” value is reported as 0.82. Also, the “Reads 0M MG132” value in assay [1] was 13.

Take “WPRYPHI [library 7-mer, oligomers screen]”: in the assay with A53T a-syn oligomers, the “Reads GFP High” value is recorded as 1, the “Reads GFP Inter” value is 0, the “Reads GFP Neg” value was 92 and the “Reads Ratio” value is on record as 47.36.

For PLPTGMG [library 7-mer, WT screen], in assay [2], the “Reads 10M MG132” value was 3, the “Reads 25M MG132” value came to 20, the “Slope Norm Reads” value is reported as 0.08 and the “Reads 0M MG132” value was determined as 1.

As to AAYNLCA [library 7-mer, WT screen], in assay [2], the “Reads 10M MG132” value amounted to 14, the “Reads 25M MG132” value was found to be 19, the “Slope Norm Reads” value is reported as 0.07 and the “Reads 0M MG132” value is reported as 1.

With “LPSKIYK [library 7-mer, oligomers screen]”, in the assay with A53T a-syn oligomers, the “Reads GFP High” value is 1, the “Reads GFP Inter” value is listed as 0, the “Reads GFP Neg” value turned out to be 57 and the “Reads Ratio” value is reported as 29.53.

As to GAAAGGT [library 7-mer, WT screen], in assay [2], the “Reads 10M MG132” value is on record as 10, the “Reads 25M MG132” value is on record as 17, the “Slope Norm Reads” value turned out to be 0.06 and the “Reads 0M MG132” value was 1.

As for LSGECVP [library 7-mer, WT screen], in assay [2], the “Reads 10M MG132” value stood at 28, the “Reads 25M MG132” value came out at 28, the “Slope Norm Reads” value amounted to 0.07 and the “Reads 0M MG132” value was determined as 3.

Regarding LPASMPC [library 7-mer, WT screen], in assay [2], the “Reads 10M MG132” value came out at 16, the “Reads 25M MG132” value was determined as 27, the “Slope Norm Reads” value was determined as 0.09 and the “Reads 0M MG132” value is listed as 2.

Consider RAPSCHL [library 7-mer, WT screen], for which, in assay [2], the “Reads 10M MG132” value was 13, the “Reads 25M MG132” value is on record as 33, the “Slope Norm Reads” value is 0.15 and the “Reads 0M MG132” value is reported as 1.

With PAMQIDG [library 7-mer, A53T screen], in assay [1], the “Reads 10M MG132” value is on record as 20, the “Reads 25M MG132” value was 53, the “Reads 50M MG132” value is listed as 337 and the “Slope Norm Reads” value worked out at 0.96. In assay [1], the “Reads 0M MG132” value is given as 32.

Regarding QSPSSAW [library 7-mer, A53T screen], in assay [1], the “Reads 10M MG132” value was 45, the “Reads 25M MG132” value came out at 59, the “Reads 50M MG132” value is 284 and the “Slope Norm Reads” value turned out to be 0.82. For the same substance, in assay [1], the “Reads 0M MG132” value came to 9.

Regarding DWLMVNL [library 7-mer, WT screen], in assay [2], the “Reads 10M MG132” value is recorded as 13, the “Reads 25M MG132” value is on record as 29, the “Slope Norm Reads” value worked out at 0.13 and the “Reads 0M MG132” value was found to be 1.

Take QSVVTAP [library 7-mer, A53T screen]: in assay [1], the “Reads 10M MG132” value came to 6, the “Reads 25M MG132” value is reported as 37, the “Reads 50M MG132” value worked out at 465 and the “Slope Norm Reads” value came out at 1.38. The “Reads 0M MG132” value in assay [1] is 8.

With “TQKRELT [library 7-mer, oligomers screen]”, in the assay with A53T a-syn oligomers, the “Reads GFP High” value was 1, the “Reads GFP Inter” value came to 0, the “Reads GFP Neg” value was 69 and the “Reads Ratio” value is reported as 35.64.

Regarding “LKRDQPV [library 7-mer, oligomers screen]”, in the assay with A53T a-syn oligomers, the “Reads GFP High” value was determined as 3, the “Reads GFP Inter” value was 0, the “Reads GFP Neg” value was determined as 118 and the “Reads Ratio” value turned out to be 30.30.

As for EDVNKCV [library 7-mer, A53T screen], in assay [1], the “Reads 10M MG132” value is 6, the “Reads 25M MG132” value is reported as 13, the “Reads 50M MG132” value is given as 233 and the “Slope Norm Reads” value is on record as 0.68. Also, the “Reads 0M MG132” value in assay [1] was found to be 6.

For the substance “CFLFQIQ [library 7-mer, oligomers screen]”, in the assay with A53T a-syn oligomers, the “Reads GFP High” value was determined as 1, the “Reads GFP Inter” value came out at 0, the “Reads GFP Neg” value is 88 and the “Reads Ratio” value is 45.32.

Take “NNQYSFV [library 7-mer, oligomers screen]”: in the assay with A53T a-syn oligomers, the “Reads GFP High” value was 1, the “Reads GFP Inter” value stood at 0, the “Reads GFP Neg” value amounted to 58 and the “Reads Ratio” value was 30.04.

For “ECHTKIR [library 7-mer, oligomers screen]”, in the assay with A53T a-syn oligomers, the “Reads GFP High” value was 1, the “Reads GFP Inter” value came to 0, the “Reads GFP Neg” value came out at 76 and the “Reads Ratio” value is on record as 39.21.

As for CKYRSVL [library 7-mer, A53T screen], in assay [1], the “Reads 10M MG132” value was determined as 7, the “Reads 25M MG132” value amounted to 11, the “Reads 50M MG132” value was found to be 438 and the “Slope Norm Reads” value is 1.30. In addition, in assay [1], the “Reads 0M MG132” value is reported as 5.

Consider QVSVAQQ [library 7-mer, A53T screen], for which, in assay [1], the “Reads 10M MG132” value came out at 13, the “Reads 25M MG132” value worked out at 120, the “Reads 50M MG132” value stood at 246 and the “Slope Norm Reads” value was determined as 0.69. In addition, in assay [1], the “Reads 0M MG132” value is listed as 45.

Turning to GWTTVRR [library 7-mer, A53T screen], in assay [1], the “Reads 10M MG132” value is reported as 1, the “Reads 25M MG132” value turned out to be 29, the “Reads 50M MG132” value stood at 322 and the “Slope Norm Reads” value was found to be 0.94. Further, the “Reads 0M MG132” value in assay [1] is on record as 15.

Consider QAELSNS [library 7-mer, A53T screen], for which, in assay [1], the “Reads 10M MG132” value amounted to 8, the “Reads 25M MG132” value turned out to be 10, the “Reads 50M MG132” value is given as 235 and the “Slope Norm Reads” value came to 0.69. In addition, the “Reads 0M MG132” value in assay [1] amounted to 6.

Regarding “CHMP2B 1-178: shorter truncated version of CHMP2B (amino acids 1–178), implicated in FTD”, the “Effect on cell survival/viability” value in assay [3] is on record as “increased toxicity”.

Turning to LQVGVAV [library 7-mer, WT screen], in assay [2], the “Reads 10M MG132” value is reported as 25, the “Reads 25M MG132” value worked out at 23, the “Slope Norm Reads” value is 0.09 and the “Reads 0M MG132” value was determined as 1.

Take CMVHSAG [library 7-mer, WT screen]: in assay [2], the “Reads 10M MG132” value stood at 14, the “Reads 25M MG132” value was 33, the “Slope Norm Reads” value is reported as 0.08 and the “Reads 0M MG132” value is given as 4.

(Values after paper PMC10115881, “Disrupting the α-synuclein-ESCRT interaction with a peptide inhibitor mitigates neurodegeneration in preclinical models of Parkinson’s disease” (Nature Communications, 2023).)
